Patent US6765104B1, “Transition metal complexes of n, n',n″trialkyl-cis-1,3,5-triaminocyclohexane and related compositions and methods of synthesis and use” (The United States of America as represented by the …, priority 1999, dated 2004)

Legend:
[1] = test system: Chinese hamster V79 cells; assay: Cytotoxicity by macroscopic colony formation, surviving fraction of V79 cells; format: cell-based; conditions: for treated cells that survive: concentration of 3 mM, FIG. 1
Description: Chinese hamster V79 cells were maintained in a 5% CO2/95% air humidified atmosphere at 37° C. in nutrient mixture F12 with 10% heat-inactivated fetal bovine serum and antibiotics. One day before each experiment, 5×10^5 V79 cells were plated into 100 mm petri dishes and incubated overnight The cells were exposed to the copper complex of N,N′,N″-triethyl-cis,cis-1,3,5-triaminocyclohexane or N,N,N″-triethyl-cis,cis-1,3,5-triaminocyclohexane or the corresponding ligand of N,N′,N″-triethyl-cis,cis-1,3,5-triaminocyclohexane or N,N′,N″-triethyl-cis,cis-1,3,5-triaminocyclohexane alone for 1 or 24 hours, after which they were rinsed, trypsinized, and plated for macroscopic colony formation. After incubating for 7 days, colonies were fixed with methanol/acetic acid and stained with crystal violet. Colonies larger than 50 cells were counted.

[2] = Hydrolysis of bis(p-nitrophenyl)phosphate, initial rate of 4-nitrophenolate formation at 400 nm; format: biochemical
Description: The copper (II) complex of N,N′,N″-trimethyl-cis,cis-1,3,5-triaminocyclohexane prepared in accordance with the method of Example 2 (1 mM) was combined with bis(4-nitrophenyl)phosphate (1 mM) and HEPES (50 mM), pH 7.24, at 50° C. and incubated, while monitoring for an increase in absorbance at 400 nm. An aliquot was withdrawn and analyzed by reverse phase HPLC, eluted with a linear gradient of 100% 50 mM acetic acid/50 mM triethylamine to 100% methanol over thirty minutes. The signals observed in the reaction mixture corresponded to the predicted hydrolytic products, p-nitrophenyl phosphate (10.5 min) and 4-nitrophenolate (16.8 min), as well as unreacted bis(p-nitrophenyl)phosphate (20.2 min). Products were confirmed by co-injection of standards.
(§1) Measurements were performed as previously described (Deal et al. (Inorg. Chem. 1996), supra). Briefly, the initial rate of formation of 4-nitrophenolate was monitored spectrophotometrically at 400 nm for 1 hr or for less than 10% conversion of bis(p-nitrophenyl)phosphate to products. Reactions were run in sets of four, triplicate reaction mixtures and one reference. Spontaneous hydrolysis of the phosphate diester was corrected in the reference, which was identical to the reaction mixture, except lacking metal complex. The concentration of 4-nitrophenolate was calculated from the absorbance using an extinction coefficient of 18700 L mol^−1 cm^−1. The initial rate was obtained from the slope of the plots of 4-nitrophenolate concentration vs. time.

[3] = test system: hypoxic MCF-7 human mammary carcinoma cells; assay: Hypoxic irradiation with the copper complex, surviving fraction of MCF-7 cells; format: cell-based; conditions: 15 minutes with complex, then irradiated, FIG. 4
Description: MCF-7 human mammary carcinoma cells were maintained in a 5% CO2/95% air humidified atmosphere at 37° C. in RPMI 1640 with 10% heat-inactivated fetal bovine serum and antibiotics. For hypoxia experiments, 3×10^5 MCF-7 cells were plated into glass flasks, and incubated overnight The flasks were sealed with a rubber stopper, and two hypodermic needles were inserted to allow for gassing. Flasks were gassed with a 95% nitrogen/5% carbon dioxide mixture for one hour. The copper complex was added to the cells after they were hypoxic through a glass sidearm connected to the flask by a ground glass connection. Cells were incubated for 1 hour for experiments to assess the toxicity of the copper complex, then plated and incubated as described previously in Example 4. For hypoxic irradiation experiments, cells were incubated with the copper complex for 15 minutes, then irradiated, plated and incubated as described previously in Example 4. Cells were irradiated with an Eldorado 8 Cobalt-60 teletherapy machine (Theratronics International Ltd., Kanata, Ontario, Canada). The dose rate varied form 200 to 150 cGy/min during the course of this study. Decay corrections were done monthly, and full electron equilibrium was ensured for all irradiations.

[4] = Hydrolysis of ethyl (p-nitrophenyl)phosphate; format: biochemical
Description: as §1
Bis(p-nitrophenyl)phosphate was hydrolyzed more rapidly than ethyl (p-nitrophenyl)phosphate, which was hydrolyzed more rapidly than p-nitrophenyl phosphate. Thus, the rate of metal-promoted hydrolysis is dependent on the electron-withdrawing ability of the leaving group. Leaving groups which are strongly electron-withdrawing are considered activated and hydrolyze more rapidly. […]

[5] = test system: hypoxic MCF-7 human mammary carcinoma cells; assay: Cytotoxicity to hypoxic MCF-7 cells, surviving fraction; format: cell-based; conditions: 1500 μM, 1 hour, FIG. 3
Description: MCF-7 human mammary carcinoma cells were maintained in a 5% CO2/95% air humidified atmosphere at 37° C. in RPMI 1640 with 10% heat-inactivated fetal bovine serum and antibiotics. For hypoxia experiments, 3×10^5 MCF-7 cells were plated into glass flasks, and incubated overnight The flasks were sealed with a rubber stopper, and two hypodermic needles were inserted to allow for gassing. Flasks were gassed with a 95% nitrogen/5% carbon dioxide mixture for one hour. The copper complex was added to the cells after they were hypoxic through a glass sidearm connected to the flask by a ground glass connection. Cells were incubated for 1 hour for experiments to assess the toxicity of the copper complex, then plated and incubated as described previously in Example 4.

[6] = Deal et al. (Inorg. Chem. 1996); cited from earlier work

With “copper complex of N,N′,N″-triethyl-cis,cis-1,3,5-triaminocyclohexane” the “treated cells that survive” value [1] was 15%.
With `O=P(O)(O)OP(=O)(O)O` [pyrophosphate, reference compound] the “inhibition of the hydrolysis reaction” value ([2]; 0.5 equivalents relative to the copper complex) was “completely inhibited”.
In the case of “copper complex of N,N′,N″-trimethyl-cis,cis-1,3,5-triaminocyclohexane”, the “rate of phosphate diester hydrolysis relative to the copper (II) triazacyclononane system” value [2] is reported as “approximately 6.5 times faster”, the “pKa from plot of log initial rate versus pH (Dixon method)” value ([2]; consistent with deprotonation of a copper(II) coordinated water molecule) is reported as 7.3 and the “maximal velocity (Vmax)” value ([2]; modified Lineweaver-Burke function) is reported as 9.3e-08 s⁻¹. The Km ([2]; modified Lineweaver-Burke function, read-out: Michaelis Constant (Km)) was 4.4 mM, the “radiation alone needed for the same effect as radiation plus the copper complex” value [3] was “Approximately twice” and the “rate acceleration compared to the copper (II) triazacyclononane system” value [4] was 6.7. For the same compound, the “treated hypoxic cells destroyed” value [5] was “approximately 99%”, the “concentration producing approximately the same effect, cells treated for 1 hr” value ([1]; 1 hr, FIG. 2) was 4000 µM and the “concentration producing approximately the same effect, cells treated for 24 hrs” value ([1]; 24 hrs, FIG. 2) was 1000 µM. The “treated cells that survive” value [1] was 3%.
For “copper (II) triazacyclononane [copper (II) triazacyclononane system]”, the “rate of phosphate diester hydrolysis” value [6] is given as 1.3e-06 s⁻¹.
